Measurements reported in patent publication US20110262546A1 (priority 2008, published 2011).

Legend:
ScGT1 cells = conditions: for % cell viability ± SEM ScGT1: mouse
PrP^Sc in ScGT1 cells = PrP^Sc in ScGT1 cells (Mus musculus, UniProt P04925); assay: cell-based
ScN2a cells = conditions: mouse
PrP^Sc in ScN2a cells = PrP^Sc in ScN2a cells (Mus musculus, UniProt P04925); assay: cell-based
Chain of PrP^Sc in ScN2a cells (P04925 23-230 limits assumed): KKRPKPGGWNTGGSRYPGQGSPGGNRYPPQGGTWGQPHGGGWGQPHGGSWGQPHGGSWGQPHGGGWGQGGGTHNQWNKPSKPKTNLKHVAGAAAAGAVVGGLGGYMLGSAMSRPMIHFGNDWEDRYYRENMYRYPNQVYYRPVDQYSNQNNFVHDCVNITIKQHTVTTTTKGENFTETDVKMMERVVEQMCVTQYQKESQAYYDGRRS

Chain of PrP^Sc in ScGT1 cells (P04925 23-230 limits assumed): as above

Compound	cytotoxicity to the neurons (ScGT1 cells)	dead cells (ScGT1 cells)	% cell viability ± SEM ScGT1 (ScGT1 cells) [%]	EC50 (PrP^Sc in ScGT1 cells) [µM]	% cell viability ± SEM ScN2a (ScN2a cells) [%]	EC50 (PrP^Sc in ScN2a cells) [µM]
sodium polystyrenesulfonate [PSS]	weak cytotoxicity	around 20%				
CN(C)CCCN1c2ccccc2CCc2ccccc21 [Imipramime, imipramine]			100 ± 7	6.2 ± 0.4	100 ± 5	5.5 ± 0.5
CCN(CC)CCCC(C)Nc1c2ccc(Cl)cc2nc2ccc(OC)cc12 (centres unmarked) [Quinacrine, quinacrine]			100 ± 4		100 ± 2	
